Data published in patent US9315503B2, “Kinase inhibitors” (CHIESI FARMACEUTICI S.p.A., priority 2011, dated 2016).
pIC50: −log10 of the molar value. Structures can show the parent of a compound that is named as a salt.

Experiments:
[1] = tested on: LPS-stimulated TNFα release from PBMCs; assay: LPS-stimulated PBMC TNFα release assay; type: cell-based; conditions: inhibition of TNFα release, human PBMCs, LPS 10 ng/ml, 18 h, ELISA, read-out: p38α inhibition (IC50 values)
Method in brief: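 Healthy-donor human PBMCs, density-gradient isolated, preincubated 1 h at 37 °C with compound in 1% FBS RPMI 1640, then stimulated with LPS (10 ng/ml) for 18 h. Supernatant TNFα by ELISA; IC50 from dose-response of % inhibition of control release, n≥3 experiments.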

p38alpha = biological target: T1, p38alpha (Homo sapiens, UniProt Q16539); assay: P38Alpha enzyme inhibition assay (Alphascreen kinase activity assay); type: biochemical; conditions: 100 pM p38alpha, 250 μM ATP, 2 hours pre-incubation at 25° C., read-out: p38α inhibition (IC50 values)
T1 construct: purchased Invitrogen PV3304
Method in brief: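 p38α (100 pM) with ATF-2 fusion protein substrate (0.3 µg/ml) in pH 7.5 HEPES/MgCl2 buffer, 1% DMSO, preincubated 2 h at 25°C with compound. Reaction started with 250 µM ATP, ran 1 h at 25°C, then stopped with EDTA. Phospho-ATF2 antibody detected by AlphaScreen luminescence; IC50 from concentration-response curves.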

T1 sequence (Q16539 whole entry): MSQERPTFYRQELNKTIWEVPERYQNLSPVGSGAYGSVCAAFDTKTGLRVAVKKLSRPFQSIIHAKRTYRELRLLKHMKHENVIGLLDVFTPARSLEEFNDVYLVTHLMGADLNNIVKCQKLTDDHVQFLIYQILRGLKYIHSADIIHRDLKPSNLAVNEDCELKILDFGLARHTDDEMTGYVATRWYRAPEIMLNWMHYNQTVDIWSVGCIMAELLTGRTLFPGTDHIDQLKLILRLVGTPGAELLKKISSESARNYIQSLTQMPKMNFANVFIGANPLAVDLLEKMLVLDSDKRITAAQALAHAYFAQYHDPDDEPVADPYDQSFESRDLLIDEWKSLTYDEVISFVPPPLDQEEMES

SMILES	pIC50 [1]	pIC50 (p38alpha)
CC(C)(C)c1cc(NC(=O)N[C@H]2CC[C@@H](Oc3ccc4nnc(N5CCCCC5)n4c3)c3ccccc32)n(-c2cccc(CN3CCCCC3)c2)n1 [Example 44, 1-[5-tert-Butyl-2-(3-piperidin-1-ylmethyl-phenyl)-2H-pyrazol-3-yl]-3-[(1S,4R)-4-(3-piperidin-1-yl-[1,2,4]triazolo[4,3-a]pyridin-6-yloxy)-1,2,3,4-tetrahydro-naphthalen-1-yl]-urea]	> 8.00	> 8.00
Cc1ccc(-n2nc(C(C)(C)C)cc2NC(=O)N[C@H]2CC[C@@H](Oc3ccc4nnc([C@]5(C)CCCN5C)n4c3)c3ccccc32)cc1 [Example 47, 1-(5-tert-Butyl-2-p-tolyl-2H-pyrazol-3-yl)-3-{(1S,4R)-4-[3-((S)-1,2-dimethyl-pyrrolidin-2-yl)-[1,2,4]triazolo[4,3-a]pyridin-6-yloxy]-1,2,3,4-tetrahydro-naphthalen-1-yl}-urea]	> 8.00	> 8.00
CC(C)(C)c1cc(NC(=O)N[C@H]2CC[C@@H](Oc3ccc4nnc(N5CCCCC5)n4c3)c3ccccc32)n(-c2cccc(COCCO)c2)n1 [Example 48, 1-{5-tert-Butyl-2-[3-(2-hydroxy-ethoxymethyl)-phenyl]-2H-pyrazol-3-yl}-3-[(1S,4R)-4-(3-piperidin-1-yl-[1,2,4]triazolo[4,3-a]pyridin-6-yloxy)-1,2,3,4-tetrahydro-naphthalen-1-yl]-urea]	> 8.00	> 8.00
Cc1ccc(-n2nc(C(C)(C)C)cc2NC(=O)N[C@H]2CC[C@@H](Oc3ccc4nnc(N5CCCOCC5)n4c3)c3ccccc32)cc1 [Example 49, 1-(5-tert-Butyl-2-p-tolyl-2H-pyrazol-3-yl)-3-[(1S,4R)-4-(3-[1,4]oxazepan-4-yl-[1,2,4]triazolo[4,3-a]pyridin-6-yloxy)-1,2,3,4-tetrahydro-naphthalen-1-yl]-urea]	> 8.00	> 8.00
CC(C)(C)c1cc(NC(=O)N[C@H]2CC[C@@H](Oc3ccc4nnc(N5CCCCC5)n4c3)c3ccccc32)n(-c2cccc(CN3CCN(CCO)CC3)c2)n1 [Example 50, 1-(5-tert-Butyl-2-{3-[4-(2-hydroxy-ethyl)-piperazin-1-ylmethyl]-phenyl}-2H-pyrazol-3-yl)-3-[(1S,4R)-4-(3-piperidin-1-yl-[1,2,4]triazolo[4,3-a]pyridin-6-yloxy)-1,2,3,4-tetrahydro-naphthalen-1-yl]-urea]	> 8.00	> 8.00
CC(C)(C)c1cc(NC(=O)N[C@H]2CC[C@@H](Oc3ccc4nnc(N5CCCCC5)n4c3)c3ccccc32)n(-c2cccc(CN3CCC(O)CC3)c2)n1 [Example 52, 1-{5-tert-Butyl-2-[3-(4-hydroxy-piperidin-1-ylmethyl)-phenyl]-2H-pyrazol-3-yl}-3-[(1S,4R)-4-(3-piperidin-1-yl-[1,2,4]triazolo[4,3-a]pyridin-6-yloxy)-1,2,3,4-tetrahydro-naphthalen-1-yl]-urea]	> 8.00	> 8.00
CC(C)(C)c1cc(NC(=O)N[C@H]2CC[C@@H](Oc3ccc4nnc(N5CCCCC5)n4c3)c3ccccc32)n(-c2cccc(SCCO)c2)n1 [Example 53, 1-{5-tert-Butyl-2-[3-(2-hydroxy-ethylsulfanyl)-phenyl]-2H-pyrazol-3-yl}-3-[(1S,4R)-4-(3-piperidin-1-yl-[1,2,4]triazolo[4,3-a]pyridin-6-yloxy)-1,2,3,4-tetrahydro-naphthalen-1-yl]-urea]	> 8.00	> 8.00
Cc1ccc(-n2nc(C(C)(C)C)cc2NC(=O)N[C@H]2CC[C@@H](Oc3ccc4nnc(N5CCC(CO)CC5)n4c3)c3ccccc32)cc1 [Example 54, 1-(5-tert-Butyl-2-p-tolyl-2H-pyrazol-3-yl)-3-{(1S,4R)-4-[3-(4-hydroxymethyl-piperidin-1-yl)-[1,2,4]triazolo[4,3-a]pyridin-6-yloxy]-1,2,3,4-tetrahydro-naphthalen-1-yl}-urea]	> 8.00	> 8.00
Cc1ccc(-n2nc(C(C)(C)C)cc2NC(=O)N[C@H]2CC[C@H](Oc3ccc4nnc(N5CCCCC5)n4c3)c3ccccc32)cc1 [Example 55, 1-(5-tert-Butyl-2-p-tolyl-2H-pyrazol-3-yl)-3-[(1S,4S)-4-(3-piperidin-1-yl-[1,2,4]triazolo[4,3-a]pyridin-6-yloxy)-1,2,3,4-tetrahydro-naphthalen-1-yl]-urea]	> 8.00	> 8.00
CC(C)(C)c1cc(NC(=O)N[C@H]2CC[C@@H](Oc3ccc4nnc(N5CCC(O)CC5)n4c3)c3ccccc32)n(-c2ccc(CO)cc2)n1 [Example 57, 1-[5-tert-Butyl-2-(4-hydroxymethyl-phenyl)-2H-pyrazol-3-yl]-3-{(1S,4R)-4-[3-(4-hydroxy-piperidin-1-yl)-[1,2,4]triazolo[4,3-a]pyridin-6-yloxy]-1,2,3,4-tetrahydro-naphthalen-1-yl}-urea]	7.00 to 8.00	> 8.00
Cc1ccc(-n2nc(C(C)(C)C)cc2NC(=O)N[C@H]2CC[C@@H](Oc3ccc4nnc([C@@H]5CCCN5C(C)C)n4c3)c3ccccc32)cc1 [Example 58, 1-(5-tert-Butyl-2-p-tolyl-2H-pyrazol-3-yl)-3-{(1S,4R)-4-[3-((S)-1-isopropyl-pyrrolidin-2-yl)-[1,2,4]triazolo[4,3-a]pyridin-6-yloxy]-1,2,3,4-tetrahydro-naphthalen-1-yl}-urea]	> 8.00	> 8.00
Cc1ccc(-n2nc(C(C)(C)C)cc2NC(=O)N[C@H]2CC[C@@H](Oc3ccc4nnc(N(C)C)n4c3)c3ccccc32)cc1 [Example 59, 1-(5-tert-Butyl-2-p-tolyl-2H-pyrazol-3-yl)-3-[(1S,4R)-4-(3-dimethylamino-[1,2,4]triazolo[4,3-a]pyridin-6-yloxy)-1,2,3,4-tetrahydro-naphthalen-1-yl]-urea]	> 8.00	> 8.00
Cc1ccc(-n2nc(C(C)(C)C)cc2NC(=O)N[C@H]2CC[C@@H](Oc3ccc4nnc([C@H]5CCCN5C)n4c3)c3ccccc32)cc1 [Example 60, 1-(5-tert-Butyl-2-p-tolyl-2H-pyrazol-3-yl)-3-{(1S,4R)-4-[3-((R)-1-methyl-pyrrolidin-2-yl)-[1,2,4]triazolo[4,3-a]pyridin-6-yloxy]-1,2,3,4-tetrahydro-naphthalen-1-yl}-urea]	> 8.00	> 8.00
CCN1CCC[C@H]1c1nnc2ccc(O[C@@H]3CC[C@H](NC(=O)Nc4cc(C(C)(C)C)nn4-c4ccc(C)cc4)c4ccccc43)cn12 [Example 61, 1-(5-tert-Butyl-2-p-tolyl-2H-pyrazol-3-yl)-3-{(1S,4R)-4-[3-((S)-1-ethyl-pyrrolidin-2-yl)-[1,2,4]triazolo[4,3-a]pyridin-6-yloxy]-1,2,3,4-tetrahydro-naphthalen-1-yl}-urea]	> 8.00	> 8.00
Cc1ccc(-n2nc(C(C)(C)C)cc2NC(=O)N[C@H]2CC[C@@H](Oc3ccc4nnc([C@@H]5CCCCN5C)n4c3)c3ccccc32)cc1 [Example 62, 1-(5-tert-Butyl-2-p-tolyl-2H-pyrazol-3-yl)-3-{(1S,4R)-4-[3-((S)-1-methyl-piperidin-2-yl)-[1,2,4]triazolo[4,3-a]pyridin-6-yloxy]-1,2,3,4-tetrahydro-naphthalen-1-yl}-urea]	> 8.00	> 8.00
Cc1ccc(-n2nc(C(C)(C)C)cc2NC(=O)N[C@H]2CC[C@@H](Oc3ccc4nnc(N5CCC[C@H](O)C5)n4c3)c3ccccc32)cc1 [Example 63, 1-(5-tert-Butyl-2-p-tolyl-2H-pyrazol-3-yl)-3-{(1S,4R)-4-[3-((S)-3-hydroxy-piperidin-1-yl)-[1,2,4]triazolo[4,3-a]pyridin-6-yloxy]-1,2,3,4-tetrahydro-naphthalen-1-yl}-urea]	> 8.00	> 8.00
Cc1ccc(-n2nc(C(C)(C)C)cc2NC(=O)N[C@H]2CC[C@@H](Oc3ccc4nnc(N5CCC[C@@H](O)C5)n4c3)c3ccccc32)cc1 [Example 64, 1-(5-tert-Butyl-2-p-tolyl-2H-pyrazol-3-yl)-3-{(1S,4R)-4-[3-((R)-3-hydroxy-piperidin-1-yl)-[1,2,4]triazolo[4,3-a]pyridin-6-yloxy]-1,2,3,4-tetrahydro-naphthalen-1-yl}-urea]	> 8.00	> 8.00
CN1CCCC[C@H]1c1nnc2ccc(O[C@@H]3CC[C@H](NC(=O)Nc4cc(C(C)(C)C)nn4-c4ccc(CO)cc4)c4ccccc43)cn12 [Example 65, 1-[5-tert-Butyl-2-(4-hydroxymethyl-phenyl)-2H-pyrazol-3-yl]-3-{(1S,4R)-4-[3-((S)-1-methyl-piperidin-2-yl)-[1,2,4]triazolo[4,3-a]pyridin-6-yloxy]-1,2,3,4-tetrahydro-naphthalen-1-yl}-urea, partial formate salt]	> 8.00	> 8.00
Cc1ccc(-n2nc(C(C)(C)C)cc2NC(=O)N[C@H]2CC[C@@H](Oc3ccc4nnc(N5CCC(CCO)CC5)n4c3)c3ccccc32)cc1 [Example 66, 1-(5-tert-Butyl-2-p-tolyl-2H-pyrazol-3-yl)-3-{(1S,4R)-4-[3-(4-hydroxyethyl-piperidin-1-yl)-[1,2,4]triazolo[4,3-a]pyridin-6-yloxy]-1,2,3,4-tetrahydro-naphthalen-1-yl}-urea]	> 8.00	> 8.00
Cc1ccc(-n2nc(C(C)(C)C)cc2NC(=O)N[C@H]2CC[C@@H](Oc3ccc4nnc(N5CCCCCC5)n4c3)c3ccccc32)cc1 [Example 67, 1-[(1S,4R)-4-(3-Azepan-1-yl-[1,2,4]triazolo[4,3-a]pyridin-6-yloxy)-1,2,3,4-tetrahydro-naphthalen-1-yl]-3-(5-tert-butyl-2-p-tolyl-2H-pyrazol-3-yl)-urea]	> 8.00	> 8.00
